In data set [1] the test system is Caco-2 cells. Nature of the data set: MTT antiproliferation assay, Caco-2. In kind it is cell-based, human. The conditions noted are these: for IC50: Homo sapiens, Caco-2, 48 h, MTT. The method, then:
(§1) Cancerous cell lines (MCF-7: human breast adenocarcinoma cells; HepG2: human hepatocellular carcinoma cells; Caco-2: human epithelial colorectal adenocarcinoma cells; A549: human epithelial lung adenocarcinoma cells), obtained from the American Type Culture Collection (ATCC) (Rockville, MD, United States of America), were cultured in Dulbecco’s Modified Eagle’s Medium (DMEM) high glucose (4.5 g/L) containing L-glutamine (4 mM) and sodium-pyruvate (Hyclone™) supplemented with 10% (v/v) fetal bovine serum (FBS) (Capricorn Scientific GmbH, South America), and incubated at 37°C with 5% CO2 in a humidified environment. African green monkey (Vero) kidney cells (also obtained from ATCC), a non-cancerous cell line, were grown in DMEM high glucose (4.5 g/L) containing L-glutamine (Lonza, Belgium) and supplemented with 5% FBS (Capricorn Scientific GmbH, South America) and 1% gentamicin (Virbac, RSA) in the same environment as cancer cells. The RAW 264.7 murine macrophage cells (obtained from ATCC) were cultured in DMEM high glucose (4.5 g/L) containing L-glutamine (Lonza, Belgium), supplemented with 10% FBS (Capricorn Scientific GmbH, South America) and 1% penicillin/streptomycin/fungizone (PSF) solution, and kept at 37°C in a 5% CO2 humidified environment.
(§2) The cancerous and non-cancerous cells were seeded at a density of 10^4 cells per well in 96-well microtiter plates, and they were incubated overnight at 37°C with 5% CO2 in a 5% CO2 humidified environment in order to allow the attachment of cells at the bottom of the plates. Then, the cells were exposed to increasing concentrations of compounds (100, 50, 25, 10 and 5 μg/mL) dissolved in dimethyl sulfoxide (DMSO) and further diluted in fresh culture medium. In this assay, the final concentration of DMSO in the culture medium was 0.5% used as negative control while doxorubicin hydrochloride (Pfizer, United States of America) was used as a positive control. The culture plates were incubated for 48 h at 37°C in a 5% CO2 humidified environment, after which the culture medium was discarded, and replaced by 200 µL of fresh culture medium with 30 µL of 3-(4,5-dimethylthiazol-2-yl)-2,5-diphenyl-2H-tetrazolium bromide (MTT) (5 mg/mL) dissolved in phosphate buffered saline ([Mosmann, 1983]). After 4 h of incubation, the medium was gently removed, and the formazan crystals were solubilized in 50 µL of DMSO. The absorbance was measured at 570 nm after shaking for 1 min on a microplate reader (Synergy Multi-Mode Reader, BioTek, Winooski, United States of America).
(§3) The cell viability rate was determined at each concentration of the compound as a percentage of cells treated with DMSO at 0.5% used as negative control. […] The selectivity index (Supporting Material) values were calculated for each compound by dividing the IC50 of non-cancerous cells by the IC50 of cancerous cells in the same units ([Mfotie Njoya et al., 2018]; [Mfotie Njoya et al., 2020]).

In data set [2] the test system is HepG2 cells. The data set can be described thus: MTT antiproliferation assay, HepG2. The class given is cell-based, human. The conditions noted are these: for IC50: Homo sapiens, HepG2, 48 h, MTT; for SI values HepG2: IC50 of non-cancerous Vero cells divided by IC50 of HepG2. The method, then: as §1, §2, §3
A general note: Tetrazolium assays rely on reduction of a dye to a coloured formazan, in cell work by metabolically active cells.

Data set [3] concerns MCF-7 cells. The data set can be described thus: MTT antiproliferation assay, MCF-7. The class given is cell-based, human. As to conditions: for IC50: Homo sapiens, MCF7, 48 h, MTT. The method, then:
as §1, §2, §3

The subject of data set [4] is A549 cells. The data set can be described thus: MTT antiproliferation assay, A549. In kind it is cell-based, human. As to conditions: for IC50: Homo sapiens, A549, 48 h, MTT. As to the method:
as §1, §2, §3

Data set [5] deals with Vero cells. Nature of the data set: MTT antiproliferation assay, non-cancerous Vero cells. The conditions noted are these: Chlorocebus sabaeus, Vero; 48 h, MTT. The class given is cell-based, African green monkey. As to the method: as §1, §2, §3
Data set [6] has as its system NO production in LPS-stimulated RAW 264.7 cells. The data set can be described thus: Nitric oxide production inhibitory assay (Griess) in LPS-stimulated RAW 264.7 cells. In kind it is cell-based, murine. The conditions noted are these: Mus musculus, RAW264.7; LPS (2 μg/mL), 24 h. As to the method: as §1
Nitric oxide (NO) production was evaluated in lipopolysaccharide (LPS)-stimulated RAW 264.7 cells by measuring the influence of tested compounds on the accumulation of nitrite, an indicator of NO in the cell supernatant, which can be detected with Griess reagent (Merck, Darmstadt, Germany). Briefly, the RAW 264.7 cells at their exponential growth phase were seeded at a density of 2×10^4 cells per well in 96 well-microtiter plates, and they were incubated overnight at 37°C in a 5% CO2 humidified environment to allow attachment. […] Then, culture medium containing LPS (2 μg/mL) was added to each well and further incubated for 24 h at 37°C in a 5% CO2 humidified environment. Thereafter, 100 μL of cell supernatant from each well were transferred into a new 96-well microtiter plate and an equal volume of Griess reagent was added according to protocol described by the manufacturer. The microtiter plate was incubated for 10 min in the dark at room temperature, and the absorbance of the mixture was measured at 550 nm on a microplate reader (Synergy Multi-Mode Reader, BioTek, Winooski, United States of America). The quantity of nitrite was determined from a sodium nitrite standard curve, and the percentage of NO production was calculated based on the ability of each tested sample to inhibit nitric oxide production by LPS-stimulated RAW 264.7 cells compared to the control (cells treated with LPS without samples which was considered as 100% NO production). Additionally, the cell viability of treated cells was determined by using the MTT assay as previously described ([Mosmann, 1983]).
Background: Nitrite, measured by Griess reagent, commonly stands in for NO production.

The target in data set [7] is T1, 15-LOX (Glycine max, UniProt P08170).
T1 construct: purchased Merck, Darmstadt, Germany
T1 sequence (P08170 1-839): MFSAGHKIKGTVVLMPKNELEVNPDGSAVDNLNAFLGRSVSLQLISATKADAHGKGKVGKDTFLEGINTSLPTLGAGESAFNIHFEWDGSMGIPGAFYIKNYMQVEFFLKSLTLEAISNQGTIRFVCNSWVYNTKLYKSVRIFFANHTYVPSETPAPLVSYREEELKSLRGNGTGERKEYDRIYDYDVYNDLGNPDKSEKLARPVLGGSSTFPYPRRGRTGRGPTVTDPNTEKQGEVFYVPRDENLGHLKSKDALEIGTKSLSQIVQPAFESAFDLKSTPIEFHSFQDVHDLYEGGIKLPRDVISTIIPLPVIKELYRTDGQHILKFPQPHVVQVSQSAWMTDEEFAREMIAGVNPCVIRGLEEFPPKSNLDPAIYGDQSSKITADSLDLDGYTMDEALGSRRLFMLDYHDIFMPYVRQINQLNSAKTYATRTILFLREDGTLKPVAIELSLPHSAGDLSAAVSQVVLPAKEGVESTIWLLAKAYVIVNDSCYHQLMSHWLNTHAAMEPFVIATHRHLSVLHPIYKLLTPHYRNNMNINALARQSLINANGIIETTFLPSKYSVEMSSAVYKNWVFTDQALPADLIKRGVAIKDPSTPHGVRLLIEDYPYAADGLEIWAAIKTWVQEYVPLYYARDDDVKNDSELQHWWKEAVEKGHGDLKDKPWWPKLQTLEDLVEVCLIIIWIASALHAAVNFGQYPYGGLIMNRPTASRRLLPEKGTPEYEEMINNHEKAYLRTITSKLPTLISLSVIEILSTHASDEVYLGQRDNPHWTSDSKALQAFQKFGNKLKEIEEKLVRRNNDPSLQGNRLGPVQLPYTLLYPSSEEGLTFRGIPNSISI
The data set can be described thus: Soybean 15-LOX inhibitory assay (FOX). In kind it is biochemical. The conditions noted are these: linoleic acid 140 μM, pH 7.4, 25°C. The method, then: This assay is based on the formation of the Fe^3+/xylenol orange (FOX) complex with maximal absorption at 560 nm ([Pinto et al., 2007]). Forty microliters of 15-LOX (final concentration: 200 UI/mL) from Glycine max (Merck, Darmstadt, Germany) was incubated with 20 µL of tested samples (100, 50, 25, 10, and 5 μg/mL) at 25°C for 5 min, with DMSO at 10% (v/v) being used as negative control. Thereafter, 40 µL of linoleic acid (final concentration, 140 μM) prepared in Tris-HCl buffer (50 mM, pH 7.4) was added, and the plates were further incubated at 25°C for 20 min in the dark. The assay was terminated by adding 100 μL of FOX reagent [sulfuric acid (30 mM), xylenol orange (100 μM), ferrous II) sulfate (100 μM), dissolved in methanol/water (9:1)], followed by the incubation of the plates at 25°C for 30 min in the dark. Finally, the absorbance was measured at 560 nm on a microplate reader (Epoch, BioTek, Winooski, United States of America). The blanks were made in the same way as tested samples except that the substrate was added after the FOX reagent. The 15-LOX inhibitory activity was calculated by using the following formula: 15−LOX inhibitory activity %=100−Abs sample−Abs blank/Abs negative control−Abs blank×100 (1)

[8] abbreviates: read-out: IC50 values 15-LOX (converted).

Molecules are shown by their SMILES. Several values for one entry are separate records, joined by “and”; a condition that tells them apart may be missing. Equal values may be shown once. Where a name gives a salt, the structure may show the parent alone. Read-outs that look alike come from different tables or passages of the source.

By IC50 is commonly meant the concentration needed to halve the response being measured. Regarding `C[C@@H]1CC[C@]2(C(=O)O)CC[C@]3(C(=O)O)C(=CCC4[C@@]5(C)CC[C@H](O)C(CO)(CO)C5CC[C@]43C)C2[C@H]1C` (stereo partly shown) [Compound 3, chletric acid], the IC50 is > 100 µg/mL and > 187 µM in data set [1]; 80 µg/mL and 150 µM in data set [2]; > 100 µg/mL and > 187 µM in data set [3]; > 187 µM and > 100 µg/mL in data set [4]; > 100 µg/mL and > 187 µM in data set [5]; > 100 µg/mL and > 187 µM in data set [6]. The IC50 in data set [7] (setting [8]) is 42.4 µM and 41.2 µM.

Take `CC1(C)CC[C@]2(C)CC=C3[C@]4(C)CC[C@H]5C(C)(C)[C@@H](O)CC[C@]5(C)[C@H]4CC[C@@]3(C)[C@@H]2C1` [Compound 4, taraxerol]: the IC50 is > 100 µg/mL and > 234 µM in data set [1]; 54.2 µg/mL and 127 µM in data set [2]; 81.3 µg/mL and 191 µM in data set [3]; 177 µM and 75.6 µg/mL in data set [4]; > 100 µg/mL and > 234 µM in data set [5]; > 100 µg/mL and > 234 µM in data set [6]. The IC50 in data set [7] (setting [8]) is more than 234 µM.

As for `C[C@H]1[C@H](C)CC[C@]2(C)CC[C@]3(C)C(=CC[C@@H]4[C@@]5(C)CC[C@H](O)C(C)(C)[C@@H]5CC[C@]43C)[C@H]12` [Compound 5, α-amyrin (3β-hydroxy-urs-12-en-3-ol)], the IC50 in data set [1] was > 100 µg/mL and > 234 µM; in data set [2], 84.5 µg/mL and 198 µM; in data set [3], 82.8 µg/mL and 194 µM; in data set [4], 217 µM and 92.7 µg/mL; in data set [5], > 100 µg/mL and > 234 µM; in data set [6] it was > 100 µg/mL and > 234 µM. The IC50 in data set [7] (setting [8]) is more than 234 µM.

For `CC1(C)CC[C@]2(CO)CC[C@]3(C)C(=CC[C@@H]4[C@@]5(C)CC[C@H](O)C(C)(C)[C@@H]5CC[C@]43C)[C@@H]2C1` [Compound 7, erythrodiol], the half-inhibitory concentration (IC50) in data set [1] is > 100 µg/mL and > 226 µM; in data set [2] it was 73.9 µg/mL and 167 µM; in data set [3], > 100 µg/mL and > 226 µM; in data set [4] it was > 226 µM and > 100 µg/mL; in data set [5] it was 84 µg/mL and 190 µM; in data set [6], 95.6 µg/mL and 216 µM. Besides, the IC50 in data set [7] (setting [8]) is 147 µM. In data set [2], the “SI values HepG2” value is reported as 1.13.

In the case of `C[C@H]1[C@H](C)CC[C@]2(C(=O)O)CC[C@]3(C(=O)O)C(=CC[C@@H]4[C@@]5(C)CC[C@H](O)C(C)(C)[C@@H]5CC[C@]43C)[C@H]12` [Compound 8, quinovic acid], the IC50 in data set [1] is 81.6 µg/mL and 168 µM; in data set [2], 100 µg/mL and 205 µM; in data set [3], 98 µg/mL and 201 µM; in data set [4], 204 µM and 99.5 µg/mL; in data set [5], > 100 µg/mL and > 205 µM; in data set [6], 86 µg/mL and 177 µM. Moreover, it took 71.9 µM to reach half-maximal inhibition in data set [7] (IC50 values 15-LOX) (IC50).

`COc1cccc2c1C(=O)c1c(O)c3c(c(O)c1C2=O)C[C@@](O)(C(=O)CO)C[C@@H]3O[C@H]1C[C@H](N)[C@H](O)[C@H](C)O1` [Doxorubicin, doxorubicin hydrochloride, reference compound]: the IC50 is 4.97 ± 0.74 µM in data set [1]; 0.56 ± 0.05 µM in data set [2]; 1.09 ± 0.06 µM in data set [3]; 0.71 ± 0.05 µM in data set [4]; 4.85 ± 0.51 µM in data set [5]. Also, the “SI values Caco-2” value in data set [1] (IC50 of non-cancerous Vero cells divided by IC50 of Caco-2) turned out to be 0.98. Moreover, the “SI values HepG2” value in data set [2] was 8.66. For the same compound, the “SI values MCF7” value in data set [3] (IC50 of non-cancerous Vero cells divided by IC50 of MCF-7) is given as 4.45. For the same compound, in data set [4] (IC50 of non-cancerous Vero cells divided by IC50 of A549), the “SI values A549” value is on record as 6.83.

On to `O=c1c(O)c(-c2ccc(O)c(O)c2)oc2cc(O)cc(O)c12` [Quercetin, quercetin, reference compound], for which the IC50 in data set [6] was 12.8 µg/mL and 42.5 µM.
